Source: patent EP2085082A1, “Treatment of cognitive decline” (Nutromnia S.R.L., priority 2008, dated 2009)
“And” between values parts separate entries of the source, which are not always exact repeats. Equal entries are not always repeated.

Tests used:
Format in all cases: in vivo
Goto-Kakizaki rats [1] = experiment: Morris water maze, place discrimination task, diabetes-related cognitive decline; conditions: for Travelled distance / time of permanence in the correct quadrant / time to find the platform: Goto-Kakizaki rats
Method: (§1) In order to evaluate the impact of a diet enriched with dicarboxylic acids on diabetes-related cognitive decline, 10 Wistar rats and 20 Goto-Kakizaki rats of both sexes (half male and half female), aged 4 months were used.
(§2) Rats of the same sex were housed (2-3 per cage) in a colony room with a 12:12 light- dark cycle and ad libitum access to food and water. All behavioral testing occurred during the light phase of the light- dark cycle. Body weight was recorded twice a week.
(§3) Ten Goto-Kakizaki rats (treated group) were selected at random from the initial group of 20 animals and were fed with pellets enriched with 5% dodecanedioic acid. The remaining ten Goto-Kakizaki rats formed the control group and received standard Purina chow. A group of ten Wistar rats was also fed with standard Purina chow, as second control group.
(§4) The dietary supplementation was carried out for 1 month and in the last week of treatment the different groups underwent some tasks in the Morris water maze in order to test their cognitive abilities.
(§5) A large metal pool (180 cm in diameter) filled with opaque water and kept at a constant temperature 24 ± 1°C and a 10 cm platform were used in place discrimination and visual discrimination tasks. A straight plastic alley (10 × 70 cm) was placed in the large pool and used during the straight swim test to estimate swimming ability. A video-camera was used to record the different phases of the experiments.
(§6) Each rat received 1 day of training with three sessions of five platform trials and one probe trial each and a random order of start positions. During the platform trials, the platform was submerged but accessible to the rat, whereas during the probe trials, the platform was collapsed at the bottom of the tank for variable intervals (from 10 to 40 sec) to test the subject's preference for the platform location. The collapsed platform was then returned to its raised position at the end of the probe trial to maintain the same response-reinforcement contingency as in the platform trials. The percentage of time spent in the correct quadrant, the choice accuracy [i.e. the time in seconds to find the platform], and the travelled distance or distance swum to find and climb on the platform [in centimeters] were measured. A a shorter time to find the platform indicate better performance. Higher scores for a percentage of time spent in the correct quadrant reflected better performance. Location of the platform and a set of spatial cues around the tank were changed between the testing periods.
(§7) Data are reported as mean ± SD. Comparison between groups was made by repeated-measures ANOVA. Body weight was used as a covariance to adjust the significance of between-group differences in speed of swimming. P<0.05 was considered as significant.

Goto-Kakizaki rats [2] = experiment: Morris water maze, repeated acquisition task, diabetes-related cognitive decline; conditions: 5% dodecanedioic acid pellets for 1 month
Method: as §1, §2, §3, §4, §5
(§8) The training started on the day after the place discrimination task and consisted of 1 day of training with two sessions of 9 trials each. During the first session, the set of extra maze cues, as well as the location of platform, was different from that on the previous place discrimination task. During the second session, the platform was moved to the new position, with the set of external cues remaining the same. Each session consisted of eight platform trials and one probe trial. The measures of platform and probe trials were the same as in the place discrimination task.
Data are reported as mean ± SD. Comparison between groups was made by repeated-measures ANOVA. […]

Goto-Kakizaki rats [3] = experiment: Morris water maze, place discrimination task, diabetes-related cognitive decline; conditions: average value (mean ± SD, 10 rats), 5% dodecanedioic acid pellets for 1 month, listed as dodecanoic acid
Wistar rats [4] = experiment: Morris water maze, place discrimination task, age-related cognitive decline; conditions: for Swimming time (choice accuracy, time to find the platform): pellets enriched with 5% dodecanedioic acid for 3 months
Method: (§9) In order to evaluate the impact of a diet enriched with dicarboxylic acids on age-related cognitive decline, 20 Wistar rats of both sexes (half male and half female), 4 months old and 23 months old were used.
(§10) Rats of the same sex were housed (2-3 per cage) in a colony room with a 12:12 light- dark cycle and ad libitum access to food and water. All behavioural testing occurred during the light phase of the light- dark cycle. Body weight was recorded twice a week.
(§11) The rats were divided in two groups of 10. The rats of a group (treated group) were fed with pellets enriched with 5% dodecanedioic acid, the rats of the other group being the control group. The dietary supplementation was carried out for 3 months and in the last week of treatment both groups underwent some tasks in the Morris water maze in order to test their cognitive abilities.
as §5, §6, §7

Wistar rats [5] = experiment: Morris water maze, repeated acquisition task, age-related cognitive decline; conditions: old Wistar rats, 5% dodecanedioic acid pellets for 3 months
Method: as §9, §10, §11, §5, §8, §7

[6] = administered orally, rats, overall conclusion
[7] = average value (mean ± SD, 10 rats), 5% dodecanedioic acid pellets for 1 month
[8] = individual data per rat, 5% dodecanedioic acid pellets for 1 month
[9] = average value (mean ± SD, 10 rats)
[10] = individual data per rat, old Wistar rats, 5% dodecanedioic acid pellets for 3 months

With `O=C(O)CCCCCCCCCCC(=O)O` [C12, dodecanedioic acid] the “diabetes-related decline in various cognitive functions” value (Goto-Kakizaki rats [1]; [6]) was “ameliorates”, the Travelled distance (Goto-Kakizaki rats [1]; [7]) was 423,60 cm and the “time of permanence in the correct quadrant” value (“time of permanence” below) (Goto-Kakizaki rats [1]; [7]) was 44,00 sec. The “time to find the platform” value (Goto-Kakizaki rats [1]; [7]) was 23,24 sec, the “time to find the platform” value (Goto-Kakizaki rats [1]; average value (mean ± SD, 10 rats), 5% dodecanedioic acid pellets for 1 month, listed as dodecanedioic acid) was 23.24 ± 2.81 s and the Travelled distance (Goto-Kakizaki rats [1]; [8]) was 306 cm and 418 cm and 511 cm (2×) and 368 cm and 354 cm and 477 cm and 541 cm and 326 cm and 424 cm. For the same molecule, the “time of permanence” value (Goto-Kakizaki rats [1]; [8]) was 41 sec (2×) and 49 sec and 50 sec and 46 sec and 39 sec and 47 sec and 45 sec and 44 sec and 38 sec, the “time to find the platform” value (Goto-Kakizaki rats [1]; individual data per rat, pellets enriched with 5% dodecanedioic acid for 1 month) was 18,4 sec and 22,6 sec and 23,4 sec and 25,9 sec and 27 sec and 24 sec and 22,1 sec and 23,5 sec and 26,2 sec and 19,3 sec and the “REPEATED ACQUISITION TASK TRAVELLED DISTANCE” value (Goto-Kakizaki rats [2]; [9]) was 374,10 cm. The “REPEATED ACQUISITION TASK TRAVELLED DISTANCE” value (Goto-Kakizaki rats [2]; average value (mean ± SD, 10 rats), listed as dodecanoic acid) was 374.1±78.23 cm, the “REPEATED ACQUISITION TASK TRAVELLED DISTANCE” value (Goto-Kakizaki rats [2]; individual data per rat) was 403 cm and 300 cm (3×) and 370 cm and 359 cm and 291 cm and 444 cm and 498 cm and 476 cm and the Travelled distance (Goto-Kakizaki rats [3]) was 423.6±83.82 cm. The “age-related decline in various cognitive functions” value (Wistar rats [4]; [6]) was “ameliorates”, the “time in the correct quadrant” value (Wistar rats [4]; average value (10 rats), old Wistar rats, 5% dodecanedioic acid pellets for 3 months) was 41,70% and the Travelled distance (Wistar rats [4]; average value (mean ± SD, 10 rats), old Wistar rats, 5% dodecanedioic acid pellets for 3 months) was 409,50 cm. The Travelled distance (Wistar rats [4]; average value (mean ± SD, 10 rats), old Wistar rats, 5% dodecanedioic acid pellets for 3 months, listed as dodecanoic acid) was 409.5± 98.6 cm, the “Swimming time (choice accuracy, time to find the platform)” value (Wistar rats [4]; average value (mean ± SD, 10 rats), old Wistar rats) was 19,59 sec and the “Swimming time (choice accuracy, time to find the platform)” value (Wistar rats [4]; average value (mean ± SD, 10 rats), old Wistar rats, listed as dodecanedioic acid) was 19.6 ± 1.6 s. For the same molecule, the Swimming time (Wistar rats [4]; individual data per rat, old Wistar rats fed pellets enriched with 5% dodecanedioic acid for 3 months) was 21,8 sec and 18 sec (3×) and 22 sec and 19 sec and 21 sec and 20 sec and 18,5 sec and 19,6 sec, the Travelled distance (Wistar rats [4]; [10]) was 370 cm and 400 cm and 300 cm (2×) and 580 cm and 450 cm and 520 cm and 350 cm and 325 cm and 500 cm and the “time in the correct quadrant” value (Wistar rats [4]; [10]) was 35% (2×) and 50% and 45% and 40% and 42% and 44% and 48% and 37% and 41%. For the same molecule, the “time of permanence” value (Wistar rats [4]; mean ± SD as given in text, old Wistar rats, 5% dodecanedioic acid pellets for 3 months) was 41.7±5.2 % sec, the “Travelled distance in repeated trials” value (Wistar rats [5]; [9]) was 327,00 cm and the “Travelled distance in repeated trials” value (Wistar rats [5]; average value (mean ± SD, 10 rats), listed as dodecanedioic acid) was 327.0±80.4 cm. The “Travelled distance in repeated trials” value (Wistar rats [5]; individual data per rat) was 400 cm and 300 cm (3×) and 200 cm and 350 cm and 410 cm and 260 cm and 470 cm and 280 cm.
